Here are results for seven substances from patent US8613928B2, “Immunizing composition and method for inducing an immune response against the β-secretase cleavage site of amyloid precursor protein” (Ramot at Tel-Aviv University Ltd., priority 2002, dated 2013).

No end group written: not given here.

The subject of experiment [1] is serum antibody raised against f88-EFRH. As to conditions: ELISA, read-out: IC50, competitive inhibition, MICE SERUM; cited from earlier work. For orientation: ELISA stands for enzyme-linked immunosorbent assay.
Experiment [2] concerns amyloid anti-aggregating antibody. As to conditions: Frenkel et al. 1998, ELISA, read-out: IC50, competitive inhibition, anti-aggregating antibody*; cited from earlier work.
A further experiment concerns Balb/c mice. Put plainly: Immunization of Balb/c mice with MAP conjugated peptides, IgG titer by ELISA. The class given is in vivo. As to conditions: injection every two weeks with Freund's adjuvant, compared among 3 MAP peptides, FIG. 3. The procedure:
3 groups of Balb/c mice were injected with 3 different MAP (octa-branched) conjugated peptides: ISEVKMDA (residues 1-8 of SEQ ID NO:1, where residue 6 is Met), VKMDAEFRH (SEQ ID NO:5) and ISEVKLDA (residues 1-8 of SEQ ID NO:1, where residue 6 is Leu). The stock solution (2 mg/ml) was prepared as follows: 1000 μl of double distilled water (DDW), 665 μl of Freund's adjuvant (Complete Freund's adjuvant on first injection and Incomplete Freund's adjuvant on subsequent injections) and 335 μl of peptide stock solution. 300 μl of the vaccination solution (immunizing composition) was injected into each mouse every two weeks after initial injection.
96-well ELISA. plates were coated with 50 μl/well peptide stock solution at dilution of 1:500 in coating buffer (0.1M Na2CO3, pH 9.6) and incubated overnight at 4° C. The plates were washed with 2×PBS (0.05% TWEEN) and 2×PBS, blocked with 3% milk/PBS 180 μl/well and incubated for 1.5 hr at 37° C. Serum dilutions in 1% milk/PBS 50 μl/well were incubated for 1 hr at 37° C., then washed again with 50 μl/well α-mouse-IgG (H+L)HRP conjugated with dilution of 1:5000 in 1% milk/PBS incubated for 1 hr at 37° C. Additional washings contained PBS (0.05% TWEEN) and finally PBS. Reaction was done with 50 μl/well of 15 ml 0.05M citrate buffer with 30 mg OPD and 5 μl of 30% H2O2. […]

Take Aβ(1-40): full length Aβ-peptide (1-40): the 50% inhibitory concentration (IC50) was 3 µM in experiment [1] and 0.8 µM in experiment [2].

Regarding DAEFRH [residues 1-6 of Aβ], the IC50 is 3 µM in experiment [1] and 0.8 µM in experiment [2].

As for DAEFRHD [residues 1-7 of Aβ], the IC50 in experiment [1] was 5 µM; in experiment [2] it was 0.9 µM.

With DAEFRHDSG [residues 1-9 of Aβ], the IC50 in experiment [1] was 5 µM; in experiment [2], 1 µM.

For EFRH [residues 3-6 of Aβ], the IC50 in experiment [1] is 6 µM; in experiment [2] it was 3 µM.

For the substance “FRH (Amyloid-beta protein 40; UniProt P05067 675-677, looked up, fragment) [residues 4-6 of Aβ]”, the results for the half-inhibitory concentration (IC50) in experiment [1] and in experiment [2] were approximately 1000 µM and 3000 µM, respectively.

As for “MAP-ISEVKLDA: octavalent multiple antigenic peptide with ISEVKLDA (residues 1-8 of SEQ ID NO:1, residue 6 Leu), Swedish mutation β-secretase cleavage site epitope (also: octavalent multiple antigenic peptide on MAP core; listed as Homo sapiens)”, the “immune response after immunization” value with Balb/c mice is recorded as “highest immune response”.

For orientation: IC50 means the concentration that inhibits the measured activity by half.
